Measurements taken from US20230058189A1, “QUINOLIN-4-ONE AND 4(1H)-CINNOLINONE COMPOUNDS AND METHODS OF USING SAME” (Frequency Therapeutics, Inc., priority 2019, published 2023).

test system: Lgr5+ cells (cochlear stem cells); experiment: Lgr5+ assay: expansion of Lgr5-positive cochlear cells in 3D culture; format: cell-based, mouse; conditions: 10 days culture with EGF, bFGF, IGF1; approximate values
Excerpt: “Stem Cell Proliferation Assay” as used herein is an assay to determine the capacity for agent(s) to induce the creation of stem cells from a starting cell population. In an exemplary Stem Cell Proliferation Assay, the number of cells for an initial cell population is harvested from a Lgr5-GFP mouse such as a B6.129P2-Lgr5tm1(cre/ERT2)Cle/J mouse (also known as Lgr5-EGFP-IRES-creERT2 or Lgr5-GFP mouse, Jackson Lab Stock No: 008875) between the age of 3 to 7 days, by isolating the organ of Corti sensory epithelium and dissociating the epithelium into single cells. Approximately 5000 cells are entrapped in 40 μl of culture substrate (for example, Matrigel (Corning, Growth Factor Reduced)) and placed at the center of wells in a 24-well plate with 500 μl of an appropriate culture media, growth factors and agent being tested. Appropriate culture media and growth factors include Advanced DMEM/F12 with media supplements (1×N2, 1×B27, 2 mM Glutamax, 10 mM HEPES, 1 mM N-acetylcysteine, and 100 U/ml penicillin/100 μg/ml streptomycin) and growth factors (50 ng/ml EGF, 50 ng/ml bFGF, and 50 ng/ml IGF-1) as well as the agent(s) being assessed are added into each well. Cells are cultured for 10 days in a standard cell culture incubator at 37° C. and 5% CO2, with media change every 2 days. The number of Lgr5^+ cells is quantified by counting the number of cells identified as Lgr5+ in an in vitro Lgr5 activity assay (i.e., an assay mearing in vitro Lgr5 activity). The fraction of cells that are Lgr5^+ is quantified by dividing the number of cells identified as Lgr5^+ in a cell population by the total number of cells present in the cell population. The average Lgr5^+ activity of a population is quantified by measuring the average mRNA expression level of Lgr5 of the population normalized using suitable and unregulated references or housekeeping genes (e.g., Hprt). The number of hair cells in a population may be measured by staining with hair cell marker (e.g., MyosinVIIa), or using an endogenous reporter of hair cell genes (e.g., Pou4f3-GFP, Atoh1-nGFP) and analyzing using flow cytometry. The fraction of cells that are hair cells is quantified by dividing the number of cells identified as hair cells in a cell population by the total number of cells present in the cell population. Lgr5 activity can be measured by qPCR.
The compounds of the present disclosure were used in Lgr5-EGFP-IRES-Cre-ER mice (Barker et al., 2007) to analyze the effects of small molecules on cochlear stem cell expansion.
Isolation of stem cells from the inner ear: All animal studies were conducted under an approved institutional protocol according to National Institutes of Health guidelines. For experiments with neonatal mice (postnatal days 1-3), the cochleae were dissected in Hank's Balanced Salt Solution (HBSS) and the organs of Corti were separated from the stria vascularis and the modiolus. The organs of Corti were then treated with Cell Recovery Solution (Corning) for 1 hour to separate cochlear epithelium from the underlying mesenchyme. Epithelia were then collected and treated with TrypLE (Life Technologies) for 15-20 minutes at 37° C. Single cells obtained by mechanical trituration were filtered (40 μm) and suspended in Matrigel® (Corning) for 3D culture.
Cells were cultured in a 1:1 mixture of DMEM and F12, supplemented with Glutamax (GIBCO), N2, B27 (Invitrogen), EGF (50 ng/ml; Chemicon), bFGF (50 ng/ml; Chemicon), IGF1 (50 ng/ml; Chemicon) and the composition provided herein. Medium was changed every other day.
Lgr5-positive cells were quantified after 10 days (D10) in culture in multiple conditions. Cell colonies were dissociated into single cells using TrypLE (Gibco). The cells were then stained with propidium iodide (P1) and were analyzed using a flow cytometer for Lgr5-GFP expression. The number of GFP-positive cells and the percentage of GFP-positive cells were quantified. […]

First: CCn1cc(C(=O)O)c(=O)c2c(N)c(F)c(N[C@@H]3C[C@@H]3c3ccccc3)cc21 (relative stereo) [Compound I-23]
Second: CCn1cc(C(=O)O)c(=O)c2c(N)c(F)c(N[C@@H]3C[C@H]3c3ccccc3)cc21 (single isomer, unassigned) [Compound I-20]
The “% of Lgr5+ Positive Cells” value of the first is lower: 14% for the first, 42% for the second.

Compared with CCn1cc(C(=O)O)c(=O)c2c(N)c(F)c(N[C@H]3CC[C@H](N[C@@H]4C[C@H]4c4ccccc4)CC3)cc21 (relative stereo) [Compound I-27], CCn1cc(C(=O)O)c(=O)c2c(N)c(F)c(N[C@H]3CC[C@@H](N[C@@H]4C[C@H]4c4ccccc4)CC3)cc21 (relative stereo) [Compound I-28] is higher in “% of Lgr5+ Positive Cells” value: 26% for the first, 40% for the second.

Going from CCn1cc(C(=O)O)c(=O)c2c(N)c(F)c(NCCN[C@@H]3C[C@H]3c3ccccc3)cc21 (relative stereo) [Compound I-29] to CCCn1cc(C(=O)O)c(=O)c2c(N)c(F)c(NCCN[C@@H]3C[C@H]3c3ccccc3)cc21 (relative stereo) [Compound I-87], the “% of Lgr5+ Positive Cells” value rises from 38% to 52%.

Going from CCn1cc(C#N)c(=O)c2c(N)c(F)c(N[C@@H]3C[C@H]3c3ccccc3)cc21 (relative stereo) [Compound I-38] to CCn1cc(C#N)c(=O)c2c(N)c(F)c(NCCN[C@@H]3C[C@H]3c3ccccc3)cc21 (relative stereo) [Compound I-84], the “% of Lgr5+ Positive Cells” value rises from 7.5% to 9%.

Compared with CCn1cc(C(=O)O)c(=O)c2c(N)c(F)c(NC3CC(N[C@@H]4C[C@H]4c4ccccc4)C3)cc21 (relative stereo) [Compound I-70], CCn1cc(C(N)=O)c(=O)c2c(N)c(F)c(NCCN[C@H]3C[C@@H]3c3ccccc3)cc21 (relative stereo) [Compound I-83] is lower in “% of Lgr5+ Positive Cells” value: 30% for the first, 12% for the second.

Going from CCn1cc(C(=O)O)c(=O)c2c(N)c(F)c(NCCN[C@@H]3C[C@]34CCc3ccccc34)cc21 (relative stereo) [Compound I-81] to CCn1cc(C(=O)O)c(=O)c2c(N)c(F)c(NCCN[C@@H]3C[C@@]34CCc3ccccc34)cc21 (relative stereo) [Compound I-82], the “% of Lgr5+ Positive Cells” value falls from 65% to 48%.

Going from Cn1cc(C(=O)O)c(=O)c2c(N)c(F)c(NCCN[C@@H]3C[C@H]3c3ccccc3)cc21 (relative stereo) [Compound I-86] to CC(C)n1cc(C(=O)O)c(=O)c2c(N)c(F)c(NCCN[C@@H]3C[C@H]3c3ccccc3)cc21 (relative stereo) [Compound I-88], the “% of Lgr5+ Positive Cells” value rises from 4% to 32%.

First: Nc1c(F)c(NCCN[C@@H]2C[C@H]2c2ccccc2)cc2c1c(=O)c(C(=O)O)cn2C1CC1 (relative stereo) [Compound I-89]
Second: CC(C)n1cc(C(=O)O)c(=O)c2c(N)c(F)c(N[C@]3(C)C[C@@H](N[C@@H]4C[C@H]4c4ccccc4)C3)cc21 (relative stereo) [Compound I-93]
The “% of Lgr5+ Positive Cells” value of the first is higher: 35% for the first, 8% for the second.

With CCn1cc(C(=O)O)c(=O)c2c(N)c(F)c(N3CCC(N[C@@H]4C[C@H]4c4ccccc4)CC3)cc21 (relative stereo) [Compound I-26] the “% of Lgr5+ Positive Cells” value was under 5%.

same assay, conditions: effective concentration for Lgr5+ expansion, 10 days culture with EGF, bFGF, IGF1; approximate values

First: CCn1cc(C(=O)O)c(=O)c2c(N)c(F)c(N[C@@H]3C[C@@H]3c3ccccc3)cc21 (relative stereo) [Compound I-23]
Second: CCn1cc(C(=O)O)c(=O)c2c(N)c(F)c(NCCN[C@@H]3C[C@H]3c3ccccc3)cc21 (relative stereo) [Compound I-29]
The “Potency (Lgr5+ activity)” value of the first is 1.8-fold lower: 2.2 µM for the first, 4 µM for the second.

Compared with CCn1cc(C(=O)O)c(=O)c2c(N)c(F)c(N[C@H]3CC[C@H](N[C@@H]4C[C@H]4c4ccccc4)CC3)cc21 (relative stereo) [Compound I-27], CCn1cc(C(=O)O)c(=O)c2c(N)c(F)c(N[C@H]3CC[C@@H](N[C@@H]4C[C@H]4c4ccccc4)CC3)cc21 (relative stereo) [Compound I-28] is 7.3-fold higher in “Potency (Lgr5+ activity)” value: 1.1 µM for the first, 8 µM for the second.

Going from CCn1cc(C#N)c(=O)c2c(N)c(F)c(N[C@@H]3C[C@H]3c3ccccc3)cc21 (relative stereo) [Compound I-38] to CCn1cc(C#N)c(=O)c2c(N)c(F)c(NCCN[C@@H]3C[C@H]3c3ccccc3)cc21 (relative stereo) [Compound I-84], the “Potency (Lgr5+ activity)” value rises from 0.123 µM to 1.1 µM (8.9-fold).

Going from CCn1cc(C(=O)O)c(=O)c2c(N)c(F)c(NC3CC(N[C@@H]4C[C@H]4c4ccccc4)C3)cc21 (relative stereo) [Compound I-70] to CCn1cc(C(N)=O)c(=O)c2c(N)c(F)c(NCCN[C@H]3C[C@@H]3c3ccccc3)cc21 (relative stereo) [Compound I-83], the “Potency (Lgr5+ activity)” value falls from 3.3 µM to 1.1 µM (3-fold).

CCn1cc(C(=O)O)c(=O)c2c(N)c(F)c(NCCN[C@@H]3C[C@]34CCc3ccccc34)cc21 (relative stereo) [Compound I-81] and CCn1cc(C(=O)O)c(=O)c2c(N)c(F)c(NCCN[C@@H]3C[C@@]34CCc3ccccc34)cc21 (relative stereo) [Compound I-82] are the same in “Potency (Lgr5+ activity)” value: 10 µM for the first, 10 µM for the second.

First: CCCn1cc(C(=O)O)c(=O)c2c(N)c(F)c(NCCN[C@@H]3C[C@H]3c3ccccc3)cc21 (relative stereo) [Compound I-87]
Second: CC(C)n1cc(C(=O)O)c(=O)c2c(N)c(F)c(NCCN[C@@H]3C[C@H]3c3ccccc3)cc21 (relative stereo) [Compound I-88]
The “Potency (Lgr5+ activity)” value of the first is 3-fold higher: 3.3 µM for the first, 1.1 µM for the second.

Nc1c(F)c(NCCN[C@@H]2C[C@H]2c2ccccc2)cc2c1c(=O)c(C(=O)O)cn2C1CC1 (relative stereo) [Compound I-89] was tested, and the “Potency (Lgr5+ activity)” value was 3.3 µM.

For CCn1cc(C(=O)O)c(=O)c2c(N)c(F)c(N3CCC(N[C@@H]4C[C@H]4c4ccccc4)CC3)cc21 (relative stereo) [Compound I-26], the “Potency (Lgr5+ activity)” value was over 10 µM.
With Cn1cc(C(=O)O)c(=O)c2c(N)c(F)c(NCCN[C@@H]3C[C@H]3c3ccccc3)cc21 (relative stereo) [Compound I-86] the “Potency (Lgr5+ activity)” value was over 30 µM.
CC(C)n1cc(C(=O)O)c(=O)c2c(N)c(F)c(N[C@]3(C)C[C@@H](N[C@@H]4C[C@H]4c4ccccc4)C3)cc21 (relative stereo) [Compound I-93] was tested, and the “Potency (Lgr5+ activity)” value was over 30 µM.

same assay, conditions: in a background of growth factors; compared to CHIR-99021 and its combinations (figures)

For CCn1cc(C(=O)O)c(=O)c2c(N)c(F)c(N[C@H]3CC[C@@H](N[C@@H]4C[C@H]4c4ccccc4)CC3)cc21 (relative stereo) [Compound I-28], the “Lgr5 GFP+ progenitor cell proliferation (Lgr5 positive cell count)” value was “generates Lgr5 GFP+ progenitor cell proliferation”.
With CCn1cc(C(=O)O)c(=O)c2c(N)c(F)c(NCCN[C@@H]3C[C@H]3c3ccccc3)cc21 (relative stereo) [Compound I-29] the “Lgr5 GFP+ progenitor cell proliferation (Lgr5 positive cell count)” value was “generates Lgr5 GFP+ progenitor cell proliferation”.

With CCn1cc(C(=O)O)c(=O)c2c(N)c(F)c(N[C@H]3CC[C@@H](N[C@@H]4C[C@H]4c4ccccc4)CC3)cc21 (relative stereo) [Compound I-28] the “enrichment of Lgr5 GFP+ cochlear progenitor cells (percent of Lgr5 positive cells)” value was “generates enrichment of Lgr5 GFP+ cochlear progenitor cells”.
For CCn1cc(C(=O)O)c(=O)c2c(N)c(F)c(NCCN[C@@H]3C[C@H]3c3ccccc3)cc21 (relative stereo) [Compound I-29], the “enrichment of Lgr5 GFP+ cochlear progenitor cells (percent of Lgr5 positive cells)” value was “generates enrichment of Lgr5 GFP+ cochlear progenitor cells”.
